According to patent US12365696B2, “Small-molecule focal adhesion kinase (FAK) inhibitors” (DANA-FARBER CANCER INSTITUTE, INC., priority 2019, dated 2025):

Experiments:
Experiment in all cases: KINOMEscan
Type in all cases: binding
[1] = target: ULK2 (Homo sapiens (Human), UniProt Q8IYT8); details: ULK2, 10000 nM; read-out: Percent Control
[2] = target: TRKA (Homo sapiens (Human), UniProt P04629); details: 10000 nM, read-out: Percent Control
[3] = target: ABL1(T315I)-nonphosphorylated (Homo sapiens (Human), UniProt P00519, T315I); details: 10000 nM, read-out: Percent Control
[4] = target: BMPR2 (Homo sapiens (Human), UniProt Q13873); details: BMPR2, 10000 nM; read-out: Percent Control
[5] = target: MYO3A (Homo sapiens (Human), UniProt Q8NEV4); details: 10000 nM, read-out: Percent Control
[6] = target: CSK (Homo sapiens (Human), UniProt P41240); details: 10000 nM, read-out: Percent Control
[7] = target: DCAMKL2 (Homo sapiens (Human), UniProt Q8N568); details: DCAMKL2, 10000 nM; read-out: Percent Control
[8] = target: AMPK-alpha1 (Homo sapiens (Human), UniProt Q13131); details: AMPK-alpha1, 10000 nM; read-out: Percent Control
[9] = target: CAMKK1 (Homo sapiens (Human), UniProt Q8N5S9); details: CAMKK1, 10000 nM; read-out: Percent Control
[10] = target: PRKCE (Homo sapiens (Human), UniProt Q02156); details: 10000 nM, read-out: Percent Control
[11] = target: TAOK3 (Homo sapiens (Human), UniProt Q9H2K8); details: TAOK3, 10000 nM; read-out: Percent Control
[12] = target: ICK (Homo sapiens (Human), UniProt Q9UPZ9); details: 10000 nM, read-out: Percent Control
[13] = target: QSK (Homo sapiens (Human), UniProt Q9Y2K2); details: 10000 nM, read-out: Percent Control
[14] = target: STK36 (Homo sapiens (Human), UniProt Q9NRP7); details: STK36, 10000 nM; read-out: Percent Control
[15] = target: LRRK2 (Homo sapiens (Human), UniProt Q5S007); details: LRRK2, 10000 nM; read-out: Percent Control
[16] = target: AXL (Homo sapiens (Human), UniProt P30530); details: 10000 nM, read-out: Percent Control
[17] = target: KIT(V559D) (Homo sapiens (Human), UniProt P10721, V559D); details: 10000 nM, read-out: Percent Control
[18] = target: AMPK-alpha2 (Homo sapiens (Human), UniProt P54646); details: AMPK-alpha2, 10000 nM; read-out: Percent Control
[19] = target: SNRK (Homo sapiens (Human), UniProt Q9NRH2); details: 10000 nM, read-out: Percent Control
[20] = target: FGFR3(G697C) (Homo sapiens (Human), UniProt P22607, G697C); details: 10000 nM, read-out: Percent Control
[21] = target: MERTK (Homo sapiens (Human), UniProt Q12866); details: 10000 nM, read-out: Percent Control
[22] = target: EPHB3 (Homo sapiens (Human), UniProt P54753); details: EPHB3, 10000 nM; read-out: Percent Control
[23] = target: ABL2 (Homo sapiens (Human), UniProt P42684); details: ABL2, 10000 nM; read-out: Percent Control
[24] = target: SIK (Homo sapiens (Human), UniProt P57059); details: 10000 nM, read-out: Percent Control
[25] = target: PKMYT1 (Homo sapiens (Human), UniProt Q99640); details: PKMYT1, 10000 nM; read-out: Percent Control
[26] = target: PIK3CA(H1047L) (Homo sapiens (Human), UniProt P42336, H1047L); details: 10000 nM, read-out: Percent Control
[27] = target: BRSK1 (Homo sapiens (Human), UniProt Q8TDC3); details: BRSK1, 10000 nM; read-out: Percent Control
[28] = target: ACVR2B (Homo sapiens (Human), UniProt Q13705); details: 10000 nM, read-out: Percent Control
[29] = target: RIOK1 (Homo sapiens (Human), UniProt Q9BRS2); details: RIOK1, 10000 nM; read-out: Percent Control
[30] = target: FGFR1 (Homo sapiens (Human), UniProt P11362); details: FGFR1, 10000 nM; read-out: Percent Control
[31] = target: EGFR(L747-T751del, Sins) (Homo sapiens (Human), UniProt P00533, DEL747-751/INS746S); details: 10000 nM, read-out: Percent Control
[32] = target: FYN (Homo sapiens (Human), UniProt P06241); details: 10000 nM, read-out: Percent Control
[33] = target: MEK2 (Homo sapiens (Human), UniProt P36507); details: MEK2, 10000 nM; read-out: Percent Control
[34] = target: SRPK2 (Homo sapiens (Human), UniProt P78362); details: SRPK2, 10000 nM; read-out: Percent Control
[35] = target: RSK3(Kin.Dom.1-N-terminal) (Homo sapiens (Human), UniProt Q15349); details: 10000 nM, read-out: Percent Control

Chain of PRKCE (Q02156 whole entry): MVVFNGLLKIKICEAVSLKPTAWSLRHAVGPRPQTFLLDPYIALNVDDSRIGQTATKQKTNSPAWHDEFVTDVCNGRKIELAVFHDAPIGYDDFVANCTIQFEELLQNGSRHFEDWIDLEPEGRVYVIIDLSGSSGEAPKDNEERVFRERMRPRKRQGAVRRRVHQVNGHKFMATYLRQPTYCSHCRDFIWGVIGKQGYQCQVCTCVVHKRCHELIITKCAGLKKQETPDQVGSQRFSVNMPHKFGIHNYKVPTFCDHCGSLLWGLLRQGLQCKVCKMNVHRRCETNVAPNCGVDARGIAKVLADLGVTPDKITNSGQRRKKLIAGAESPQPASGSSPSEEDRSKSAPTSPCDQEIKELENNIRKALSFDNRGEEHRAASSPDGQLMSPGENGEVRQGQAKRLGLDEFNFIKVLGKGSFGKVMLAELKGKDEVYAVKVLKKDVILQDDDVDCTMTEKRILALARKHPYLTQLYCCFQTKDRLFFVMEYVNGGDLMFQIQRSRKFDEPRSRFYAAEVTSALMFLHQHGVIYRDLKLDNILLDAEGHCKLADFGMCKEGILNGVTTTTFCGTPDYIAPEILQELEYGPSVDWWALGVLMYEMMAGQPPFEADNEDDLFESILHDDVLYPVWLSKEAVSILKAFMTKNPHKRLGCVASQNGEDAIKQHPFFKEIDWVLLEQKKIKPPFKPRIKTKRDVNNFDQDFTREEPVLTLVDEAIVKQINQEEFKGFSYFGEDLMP
Chain of TRKA (P04629 33-796): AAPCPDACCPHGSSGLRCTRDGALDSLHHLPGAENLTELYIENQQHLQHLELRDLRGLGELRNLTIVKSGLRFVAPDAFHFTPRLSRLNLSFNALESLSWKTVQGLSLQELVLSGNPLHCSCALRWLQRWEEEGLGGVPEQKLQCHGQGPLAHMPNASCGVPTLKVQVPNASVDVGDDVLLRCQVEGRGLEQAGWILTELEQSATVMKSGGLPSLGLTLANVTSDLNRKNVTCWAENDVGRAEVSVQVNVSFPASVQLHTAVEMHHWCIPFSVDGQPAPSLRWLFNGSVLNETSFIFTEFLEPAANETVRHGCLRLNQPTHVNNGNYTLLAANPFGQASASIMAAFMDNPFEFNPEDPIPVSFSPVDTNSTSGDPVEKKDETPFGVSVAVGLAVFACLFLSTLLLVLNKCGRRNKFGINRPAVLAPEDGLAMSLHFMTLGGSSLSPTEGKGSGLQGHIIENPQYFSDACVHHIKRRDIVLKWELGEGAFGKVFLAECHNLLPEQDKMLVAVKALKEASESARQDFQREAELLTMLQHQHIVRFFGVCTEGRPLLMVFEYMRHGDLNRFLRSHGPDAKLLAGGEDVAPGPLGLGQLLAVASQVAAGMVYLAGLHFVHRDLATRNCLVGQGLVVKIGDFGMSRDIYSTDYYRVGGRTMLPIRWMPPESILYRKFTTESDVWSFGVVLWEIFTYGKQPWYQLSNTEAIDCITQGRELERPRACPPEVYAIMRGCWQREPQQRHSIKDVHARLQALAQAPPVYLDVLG
Chain of CAMKK1 (Q8N5S9 whole entry): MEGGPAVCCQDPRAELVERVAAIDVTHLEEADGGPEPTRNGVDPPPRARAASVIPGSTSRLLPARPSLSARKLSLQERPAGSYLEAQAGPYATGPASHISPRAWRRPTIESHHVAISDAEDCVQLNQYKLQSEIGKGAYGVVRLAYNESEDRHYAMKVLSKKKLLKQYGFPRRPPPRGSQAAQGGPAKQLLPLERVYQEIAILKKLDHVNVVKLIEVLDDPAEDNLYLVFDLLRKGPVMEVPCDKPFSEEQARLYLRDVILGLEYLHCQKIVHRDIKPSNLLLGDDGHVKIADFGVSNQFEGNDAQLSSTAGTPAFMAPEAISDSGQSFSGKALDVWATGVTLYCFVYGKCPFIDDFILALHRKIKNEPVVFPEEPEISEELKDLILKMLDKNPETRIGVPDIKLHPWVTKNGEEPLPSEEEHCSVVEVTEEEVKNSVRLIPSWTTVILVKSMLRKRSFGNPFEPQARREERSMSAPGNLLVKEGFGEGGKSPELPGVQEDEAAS
Chain of BRSK1 (Q8TDC3 whole entry): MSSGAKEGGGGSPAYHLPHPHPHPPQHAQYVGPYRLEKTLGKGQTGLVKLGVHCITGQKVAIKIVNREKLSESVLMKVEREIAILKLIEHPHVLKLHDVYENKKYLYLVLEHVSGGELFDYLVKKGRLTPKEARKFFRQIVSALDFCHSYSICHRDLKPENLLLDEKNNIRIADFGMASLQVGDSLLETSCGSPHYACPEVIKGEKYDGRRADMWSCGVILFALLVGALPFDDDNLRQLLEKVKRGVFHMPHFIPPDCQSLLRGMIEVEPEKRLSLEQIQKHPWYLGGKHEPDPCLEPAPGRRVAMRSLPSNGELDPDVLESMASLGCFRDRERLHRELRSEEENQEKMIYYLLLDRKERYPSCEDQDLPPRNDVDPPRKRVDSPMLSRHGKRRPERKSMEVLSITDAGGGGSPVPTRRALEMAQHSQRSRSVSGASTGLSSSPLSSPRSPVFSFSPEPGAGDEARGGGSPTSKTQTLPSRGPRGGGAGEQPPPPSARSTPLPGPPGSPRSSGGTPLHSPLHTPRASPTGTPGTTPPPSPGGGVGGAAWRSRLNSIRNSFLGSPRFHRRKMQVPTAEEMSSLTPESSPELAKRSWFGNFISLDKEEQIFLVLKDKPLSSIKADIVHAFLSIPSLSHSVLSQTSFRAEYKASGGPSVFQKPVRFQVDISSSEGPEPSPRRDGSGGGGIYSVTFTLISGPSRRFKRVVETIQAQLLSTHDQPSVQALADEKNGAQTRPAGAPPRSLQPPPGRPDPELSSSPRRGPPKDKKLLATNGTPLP
Chain of AMPK-alpha1 (Q13131 whole entry): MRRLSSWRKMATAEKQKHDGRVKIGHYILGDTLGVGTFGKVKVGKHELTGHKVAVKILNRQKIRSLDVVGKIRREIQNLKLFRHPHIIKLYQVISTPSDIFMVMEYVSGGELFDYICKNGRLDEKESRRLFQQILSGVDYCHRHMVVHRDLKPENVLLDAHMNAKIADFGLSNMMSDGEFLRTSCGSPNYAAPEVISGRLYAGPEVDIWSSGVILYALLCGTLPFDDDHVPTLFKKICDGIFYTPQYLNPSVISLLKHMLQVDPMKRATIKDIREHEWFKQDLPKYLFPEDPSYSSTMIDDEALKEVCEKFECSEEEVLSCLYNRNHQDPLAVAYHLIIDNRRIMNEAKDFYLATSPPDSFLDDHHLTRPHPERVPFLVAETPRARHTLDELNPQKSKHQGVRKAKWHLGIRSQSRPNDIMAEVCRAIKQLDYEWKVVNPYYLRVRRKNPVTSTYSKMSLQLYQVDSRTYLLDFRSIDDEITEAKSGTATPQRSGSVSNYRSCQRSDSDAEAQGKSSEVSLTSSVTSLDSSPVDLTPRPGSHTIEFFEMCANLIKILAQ
Chain of SRPK2 (P78362 whole entry): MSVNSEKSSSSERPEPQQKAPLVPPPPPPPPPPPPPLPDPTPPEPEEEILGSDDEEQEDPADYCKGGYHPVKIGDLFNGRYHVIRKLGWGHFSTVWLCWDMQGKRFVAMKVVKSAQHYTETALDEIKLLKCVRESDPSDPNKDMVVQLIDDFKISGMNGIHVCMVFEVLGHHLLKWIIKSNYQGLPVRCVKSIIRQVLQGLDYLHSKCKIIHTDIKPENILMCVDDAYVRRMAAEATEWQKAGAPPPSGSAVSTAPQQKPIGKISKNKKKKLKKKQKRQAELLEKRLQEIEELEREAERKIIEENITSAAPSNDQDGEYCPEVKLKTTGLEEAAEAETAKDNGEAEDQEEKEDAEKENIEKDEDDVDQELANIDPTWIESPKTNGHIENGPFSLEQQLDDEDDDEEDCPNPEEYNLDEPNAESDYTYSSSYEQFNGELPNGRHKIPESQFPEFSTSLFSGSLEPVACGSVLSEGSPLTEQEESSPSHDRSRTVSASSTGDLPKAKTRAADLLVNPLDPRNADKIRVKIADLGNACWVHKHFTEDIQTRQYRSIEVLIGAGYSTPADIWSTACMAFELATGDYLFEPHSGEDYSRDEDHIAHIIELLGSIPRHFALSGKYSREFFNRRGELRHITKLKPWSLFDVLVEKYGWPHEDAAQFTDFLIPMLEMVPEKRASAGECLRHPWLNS
Chain of ULK2 (Q8IYT8 whole entry): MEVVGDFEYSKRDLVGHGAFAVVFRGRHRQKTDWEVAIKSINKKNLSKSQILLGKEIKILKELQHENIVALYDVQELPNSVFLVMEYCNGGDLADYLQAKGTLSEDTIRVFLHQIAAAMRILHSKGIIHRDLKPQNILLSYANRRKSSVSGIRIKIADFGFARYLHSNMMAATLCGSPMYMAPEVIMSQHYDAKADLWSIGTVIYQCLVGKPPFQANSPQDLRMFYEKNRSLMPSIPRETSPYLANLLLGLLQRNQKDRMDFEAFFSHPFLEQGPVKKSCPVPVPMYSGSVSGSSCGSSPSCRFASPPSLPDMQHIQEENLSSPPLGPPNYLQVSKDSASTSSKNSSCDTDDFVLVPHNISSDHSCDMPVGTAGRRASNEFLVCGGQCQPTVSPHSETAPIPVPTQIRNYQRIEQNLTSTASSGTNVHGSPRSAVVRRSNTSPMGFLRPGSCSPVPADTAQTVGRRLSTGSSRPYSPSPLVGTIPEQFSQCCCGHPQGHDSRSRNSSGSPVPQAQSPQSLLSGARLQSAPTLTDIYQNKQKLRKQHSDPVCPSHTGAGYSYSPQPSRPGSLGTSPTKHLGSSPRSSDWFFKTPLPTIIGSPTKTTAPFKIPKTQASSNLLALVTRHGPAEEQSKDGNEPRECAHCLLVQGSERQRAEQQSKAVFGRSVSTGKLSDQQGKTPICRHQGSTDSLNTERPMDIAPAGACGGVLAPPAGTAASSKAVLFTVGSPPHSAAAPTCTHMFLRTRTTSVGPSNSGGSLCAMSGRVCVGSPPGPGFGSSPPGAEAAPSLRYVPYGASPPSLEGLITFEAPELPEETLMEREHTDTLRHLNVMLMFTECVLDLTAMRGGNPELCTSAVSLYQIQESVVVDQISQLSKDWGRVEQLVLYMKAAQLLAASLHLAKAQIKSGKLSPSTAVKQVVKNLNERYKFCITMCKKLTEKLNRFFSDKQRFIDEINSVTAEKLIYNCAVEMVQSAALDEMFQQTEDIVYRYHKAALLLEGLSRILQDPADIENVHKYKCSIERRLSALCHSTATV

Compound | remaining binding at 10 µM [1] [%] | remaining binding at 10 µM [2] [%] | remaining binding at 10 µM [3] [%] | remaining binding at 10 µM [4] [%] | remaining binding at 10 µM [5] [%] | remaining binding at 10 µM [6] [%] | remaining binding at 10 µM [7] [%] | remaining binding at 10 µM [8] [%] | remaining binding at 10 µM [9] [%] | remaining binding at 10 µM [10] [%] | remaining binding at 10 µM [11] [%] | remaining binding at 10 µM [12] [%] | remaining binding at 10 µM [13] [%] | remaining binding at 10 µM [14] [%] | remaining binding at 10 µM [15] [%] | remaining binding at 10 µM [16] [%] | remaining binding at 10 µM [17] [%] | remaining binding at 10 µM [18] [%] | remaining binding at 10 µM [19] [%] | remaining binding at 10 µM [20] [%] | other results
COc1cc(N2CCC(N3CCN(C)CC3)CC2)ccc1Nc1ncc2c(n1)N(C)c1sc(C)nc1C(=O)N2 [Compound 3, 6-((2-methoxy-4-(4-(4-methylpiperazin-1-yl)piperidin-1-yl)phenyl)amino)-2,4-dimethyl-4,9-dihydro-10H-pyrimido[5,4-b]thiazolo[5,4-e][1,4]diazepin-10-one] | 100 | 100 | 100 | 100 | 79 | 85 | 87 | 79 | 84 | 100 | 100 | 100 | 100 | 61 | 98 | 100 | 56 | 83 | 94 | 78 | remaining binding at 10 µM [21]: 93%; remaining binding at 10 µM [22]: 70%; remaining binding at 10 µM [23]: 69%; remaining binding at 10 µM [24]: 69%; remaining binding at 10 µM [25]: 90%; remaining binding at 10 µM [26]: 66%; remaining binding at 10 µM [27]: 69%; remaining binding at 10 µM [28]: 92%; remaining binding at 10 µM [29]: 62%; remaining binding at 10 µM [30]: 75%; remaining binding at 10 µM [31]: 52%; remaining binding at 10 µM [32]: 73%; remaining binding at 10 µM [33]: 100%; remaining binding at 10 µM [34]: 87%; remaining binding at 10 µM [35]: 83%
COc1cc(N2CCC(N3CCN(C)CC3)CC2)ccc1Nc1ncc2c(n1)N(C)c1sc(C)nc1C(=O)N2C [Compound 5, 6-((2-methoxy-4-(4-(4-methylpiperazin-1-yl)piperidin-1-yl)phenyl)amino)-2,4,9-trimethyl-4,9-dihydro-10H-pyrimido[5,4-b]thiazolo[5,4-e][1,4]diazepin-10-one] | 81 | 100 | 100 | 100 | 100 | 100 | 3 | 91 | 100 | 100 | 77 | 100 | 94 | 100 | 32 | 97 | 100 | 100 | 100 | 100 | remaining binding at 10 µM [21]: 100%; remaining binding at 10 µM [22]: 100%; remaining binding at 10 µM [23]: 95%; remaining binding at 10 µM [24]: 100%; remaining binding at 10 µM [25]: 95%; remaining binding at 10 µM [26]: 80%; remaining binding at 10 µM [27]: 100%; remaining binding at 10 µM [28]: 100%; remaining binding at 10 µM [29]: 100%; remaining binding at 10 µM [30]: 90%; remaining binding at 10 µM [31]: 100%; remaining binding at 10 µM [32]: 93%; remaining binding at 10 µM [33]: 99%; remaining binding at 10 µM [34]: 89%; remaining binding at 10 µM [35]: 100%
